Assay results reported in patent publication US12383511B2, “Osteogenic agents and uses thereof” (GoldPorp Pharma Limited, priority 2022, dated 2025).

Columns and labels:
MC3T3-E1 osteoblast = experiment: mRNA expression of osteogenesis-related molecules by real-time PCR; format: cell-based; conditions: for AFT6 mRNA expression / ALP mRNA expression / ATF3 mRNA expression / Axin2 mRNA expression / BMP2 mRNA expression / BMP7 mRNA expression / BSP mRNA expression / COL1A1 mRNA expression / Fzd1 mRNA expression / Fzd2 mRNA expression / Fzd5 mRNA expression / LRP5 mRNA expression / OCN mRNA expression / OPN mRNA expression / OSN mRNA expression / OSX mRNA expression / Runx2 mRNA expression / VDR mRNA expression / Wnt3A mRNA expression / Wnt5A mRNA expression / Wnt7B mRNA expression / Wnt11 mRNA expression: BMP2 30 ng/ml, ASC 400 μM + β-GP 5 mM, F1 5 μM, F4 5 μM, relative to DMSO control, normalized to GAPDH; for levels of osteocalcin (OCN) and osteoportin (OPN) mRNA: treatment of cells with F1 or F4
Method: MC3T3-E1 cells were seeded in 6-well plates at 1×10^5 cells per well for 2 days. […] Total RNA was isolated at Day 2 and Day 4 with Trizol® reagent, 1 ug of total RNA was subjected to reverse transcription/cDNA synthesis using Superscript III first-strand synthesis system (Life Technologies).
Equal amount of cDNA generated from reverse transcription reactions were subjected to real-time PCR with SYBR® Green PCR Master Mix and primers for osteoblast differentiation markers. Primers used included: […]
Osteoblast differentiation markers genes expression were analyzed by ABI prism 7900HT Sequence Detection System and the relative level of transcript expression was quantified by ΔΔCt method.

MC3T3-E1 osteoblasts [1] = experiment: Alkaline phosphatase (ALP) activity assay in MC3T3-E1 osteoblasts; format: cell-based; conditions: for cellular alkaline phosphatase (ALP) enzyme activities: 0.5, […], 5 μM; for concentration at which increases in ALP activities were already evident / concentration of maximum increase in ALP activities: at 24 and 48 h after treatment
Method: MC3T3-E1 (passage 4-10) was maintained in Minimal Essential Media (MEM) supplemented with 10% FBS, 1 mM Sodium Pyruvate and 1% 100 ug/ml penicillin-streptomycin (100 U/ml). All reagents are from GIBCO Life Technologies.
MC3T3-E1 cells were seeded at 1×10^5 cells per well in 24-well plate. […] After treatment, cells were washed twice with PBS and lysed with buffer contains 50 mM Tris pH7.4 and 0.1% Triton X-100. After 3 freeze-thaw cycles, 40 ul of cell lysate was mixed with 50 ul of 2× Assay buffer (2-Amino-2methyl-1-propanol, pH 10.4 with 4 mM MgCl2) and 10 ul of 0.1M 4-Nitrophenyl phosphate. Incubated in 37° C. and recorded at OD410.

MC3T3-E1 osteoblasts [2] = experiment: Cell viability / cell number NBB assay; format: cell-based; conditions: for cell number (NBB assay): 0.625 to 10 μM; for cell viability (NBB assay): higher concentrations (25-100 μM)
Method: MC3T3-E1 cells were seeded at 7×10^3 cells/well in 96-well plates for 2 days. […] After treatment, cells were fixed with 3% formalin and stained with NBB solution (0.05% NBB with 0.1 M sodium acetate and 9% acetic acid) at room temperature. Twenty four hours later, staining solution was removed and distilled water was added to remove free dye. Then, 100 ul of 50 mM […] was added to dissolve bound dye and recorded absorbance at 590 nm.

[3] = system: MC3T3-E1 osteoblast cells; experiment: Osteoblast mineralization assay (Alizarin Red staining); format: cell-based; conditions: for Alizarin Red staining (calcium deposition) in cell layers: […] or 5 μM in osteoblast mineralization medium, day 14, compared with control
Method: MC3T3-E1 cells were seeded at 1×10^5 cells per well in 24-well plates. […] […] Cells were washed twice with PBS and fixed with 10% formalin for 1 hour. Fixed cell was washed twice with distilled water and stained with 2% Alizarin Red S solution (pH 4.1) in the dark for 1 hour. Stain solution was removed and washed 4 times with distilled water.

p38 = experiment: Western blot of phosphorylated p38 and total p38; format: cell-based; conditions: 5 μM, 15 min and 30 min, MC3T3-E1 osteoblasts
Method: MC3T3-E1 were lysed with 20 mM Tris pH8.0, 137 mM NaCl, 2 mM EDTA, 1% Triton X-100 and 10% Glycerol with protease inhibitor cocktail (Roche, complete). Protein concentration was determined by Bradford Protein Assay (Bio-Rad) and equal amount of proteins (30 μg) was resolved by SDS-PAGE and transferred onto PVDF membrane. The membrane was blocked with 3% BSA in Tris-buffered saline containing 0.1% Tween 20 and incubated with primary antibody (1:1000) overnight at 4° C. then incubated with HRP-linked secondary antibody for 1 h. Chemiluminescence signals were detected using enhanced chemiluminescence reagents (GE Healthcare) on X-Ray films (Fujifilm).
The levels of phosphorylated p38 and total p38 were determined by immunoblotting experiments.

MCF7 cells = experiment: BrdU incorporation proliferation assay; format: cell-based
Excerpt: The effect of F compounds on estrogen dependent cancer cells was investigated (FIG. 8). […] The fold increase of MCF7 proliferation was similar to that induced by estradiol treatment.

Estrogen receptor beta = Estrogen receptor beta (Homo sapiens, UniProt Q92731); experiment: biochemical
Sequence of Estrogen receptor beta (Q92731 whole entry, species assumed): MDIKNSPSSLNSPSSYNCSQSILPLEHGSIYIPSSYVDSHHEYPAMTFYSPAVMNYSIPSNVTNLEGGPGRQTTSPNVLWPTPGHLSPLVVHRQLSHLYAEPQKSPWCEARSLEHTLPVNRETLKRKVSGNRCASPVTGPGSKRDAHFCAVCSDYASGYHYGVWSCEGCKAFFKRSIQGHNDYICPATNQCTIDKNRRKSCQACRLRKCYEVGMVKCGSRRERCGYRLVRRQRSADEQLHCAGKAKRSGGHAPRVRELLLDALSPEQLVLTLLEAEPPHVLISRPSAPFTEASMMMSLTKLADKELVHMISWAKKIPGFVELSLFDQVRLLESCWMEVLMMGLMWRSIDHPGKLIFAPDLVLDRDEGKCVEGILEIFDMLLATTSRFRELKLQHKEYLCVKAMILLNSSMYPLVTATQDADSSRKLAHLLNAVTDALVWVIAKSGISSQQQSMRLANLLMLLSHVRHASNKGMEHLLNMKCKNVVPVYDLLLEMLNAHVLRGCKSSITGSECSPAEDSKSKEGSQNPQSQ

MDA-MB-231 cells = experiment: BrdU incorporation proliferation assay; format: cell-based; conditions: 5 μM
[4] = system: estrogen responsive gene elements (ERE); experiment: pERE-Luc reporter gene assay in MC3T3-E1; format: cell-based; conditions: 0.5-10 μM, MC3T3-E1
Method: MC3T3-E1 were seeded at 9.0×10^4 per well in 24-well plates. Twenty-four hours after cell seeding, cells were transiently transfected with 500 ng pERE-Luc (contains three repeats of estrogen-response element) by lipofectamine 2000 (Life Technologies) according to manufacturers' instruction (lipofectamine:DNA=3:1).

C=Cc1cc(O)c(C)c2c1-c1ccc(O)c(C)c1CC2 [F1]
AFT6 mRNA expression (MC3T3-E1 osteoblast; D 2): 1.5 fold
ALP mRNA expression (MC3T3-E1 osteoblast; D 2): 1.8 fold
ATF3 mRNA expression (MC3T3-E1 osteoblast; D 2): 0.8 fold
Axin2 mRNA expression (MC3T3-E1 osteoblast; D 2): 0.9 fold
BMP2 mRNA expression (MC3T3-E1 osteoblast; D 2): 1.2 fold
BMP7 mRNA expression (MC3T3-E1 osteoblast; D 2): 1.6 fold
BSP mRNA expression (MC3T3-E1 osteoblast; D 2): 2.1 fold
COL1A1 mRNA expression (MC3T3-E1 osteoblast; D 2): 0.7 fold
Fzd1 mRNA expression (MC3T3-E1 osteoblast; D 2): 3.0 fold
Fzd2 mRNA expression (MC3T3-E1 osteoblast; D 2): 1.0 fold
Fzd5 mRNA expression (MC3T3-E1 osteoblast; D 2): 0.8 fold
LRP5 mRNA expression (MC3T3-E1 osteoblast; D 2): 0.8 fold
OCN mRNA expression (MC3T3-E1 osteoblast; D 2): 29 fold
OPN mRNA expression (MC3T3-E1 osteoblast; D 2): 1.4 fold
OSN mRNA expression (MC3T3-E1 osteoblast; D 2): 0.7 fold
OSX mRNA expression (MC3T3-E1 osteoblast; D 2): 0.6 fold
Runx2 mRNA expression (MC3T3-E1 osteoblast; D 2): 1.1 fold
VDR mRNA expression (MC3T3-E1 osteoblast; D 2): 0.9 fold
Wnt3A mRNA expression (MC3T3-E1 osteoblast; D 2): 0.9 fold
Wnt5A mRNA expression (MC3T3-E1 osteoblast; D 2): 0.8 fold
Wnt7B mRNA expression (MC3T3-E1 osteoblast; D 2): 0.8 fold
Wnt11 mRNA expression (MC3T3-E1 osteoblast; D 2): 1.1 fold
AFT6 mRNA expression (MC3T3-E1 osteoblast; D 4): 1.0 fold
ALP mRNA expression (MC3T3-E1 osteoblast; D 4): 2.9 fold
ATF3 mRNA expression (MC3T3-E1 osteoblast; D 4): 1.0 fold
Axin2 mRNA expression (MC3T3-E1 osteoblast; D 4): 1.0 fold
BMP2 mRNA expression (MC3T3-E1 osteoblast; D 4): 0.7 fold
BMP7 mRNA expression (MC3T3-E1 osteoblast; D 4): 1.1 fold
BSP mRNA expression (MC3T3-E1 osteoblast; D 4): 1.3 fold
COL1A1 mRNA expression (MC3T3-E1 osteoblast; D 4): 0.9 fold
Fzd1 mRNA expression (MC3T3-E1 osteoblast; D 4): 2.6 fold
Fzd2 mRNA expression (MC3T3-E1 osteoblast; D 4): 0.7 fold
Fzd5 mRNA expression (MC3T3-E1 osteoblast; D 4): 0.6 fold
LRP5 mRNA expression (MC3T3-E1 osteoblast; D 4): 0.6 fold
OCN mRNA expression (MC3T3-E1 osteoblast; D 4): 11 fold
OPN mRNA expression (MC3T3-E1 osteoblast; D 4): 1.8 fold
OSN mRNA expression (MC3T3-E1 osteoblast; D 4): 1.6 fold
OSX mRNA expression (MC3T3-E1 osteoblast; D 4): 0.5 fold
Runx2 mRNA expression (MC3T3-E1 osteoblast; D 4): 1.2 fold
VDR mRNA expression (MC3T3-E1 osteoblast; D 4): 0.5 fold
Wnt3A mRNA expression (MC3T3-E1 osteoblast; D 4): 2.8 fold
Wnt5A mRNA expression (MC3T3-E1 osteoblast; D 4): 0.6 fold
Wnt7B mRNA expression (MC3T3-E1 osteoblast; D 4): 1.1 fold
Wnt11 mRNA expression (MC3T3-E1 osteoblast; D 4): 0.6 fold
levels of osteocalcin (OCN) and osteoportin (OPN) mRNA (MC3T3-E1 osteoblast): markedly increased
cellular alkaline phosphatase (ALP) enzyme activities (MC3T3-E1 osteoblasts [1]): increased the cellular alkaline phosphatase (ALP) enzyme activities in a concentration-dependent manner
concentration at which increases in ALP activities were already evident (MC3T3-E1 osteoblasts [1]): 0.5 µM
concentration of maximum increase in ALP activities (MC3T3-E1 osteoblasts [1]): 5 µM
cell number (NBB assay) (MC3T3-E1 osteoblasts [2]): slightly increased the cell number
cell viability (NBB assay) (MC3T3-E1 osteoblasts [2]): significant loss of cell viability
calcium deposition at higher vs lower concentration ([3]; 5 μM compared with […]): More calcium deposition
Alizarin Red staining (calcium deposition) in cell layers [3]: significantly enhanced

C=Cc1cc(O)cc2c1-c1ccc(O)c(C)c1CC2 [F4, effusol]
levels of phosphorylated p38 (p38): increased levels of phosphorylated p38
mRNA of Wnt pathway members Wnt3A and frizzled 1 (MC3T3-E1 osteoblast): increases
AFT6 mRNA expression (MC3T3-E1 osteoblast; D 2): 1.5 fold
ALP mRNA expression (MC3T3-E1 osteoblast; D 2): 2.1 fold
ATF3 mRNA expression (MC3T3-E1 osteoblast; D 2): 0.7 fold
Axin2 mRNA expression (MC3T3-E1 osteoblast; D 2): 1.1 fold
BMP2 mRNA expression (MC3T3-E1 osteoblast; D 2): 1.0 fold
BMP7 mRNA expression (MC3T3-E1 osteoblast; D 2): 1.0 fold
BSP mRNA expression (MC3T3-E1 osteoblast; D 2): 1.6 fold
COL1A1 mRNA expression (MC3T3-E1 osteoblast; D 2): 1.0 fold
Fzd1 mRNA expression (MC3T3-E1 osteoblast; D 2): 3.3 fold
Fzd2 mRNA expression (MC3T3-E1 osteoblast; D 2): 0.8 fold
Fzd5 mRNA expression (MC3T3-E1 osteoblast; D 2): 0.7 fold
LRP5 mRNA expression (MC3T3-E1 osteoblast; D 2): 0.9 fold
OCN mRNA expression (MC3T3-E1 osteoblast; D 2): 17 fold
OPN mRNA expression (MC3T3-E1 osteoblast; D 2): 1.5 fold
OSN mRNA expression (MC3T3-E1 osteoblast; D 2): 0.9 fold
OSX mRNA expression (MC3T3-E1 osteoblast; D 2): 0.6 fold
Runx2 mRNA expression (MC3T3-E1 osteoblast; D 2): 1.3 fold
VDR mRNA expression (MC3T3-E1 osteoblast; D 2): 2.1 fold
Wnt3A mRNA expression (MC3T3-E1 osteoblast; D 2): 0.9 fold
Wnt5A mRNA expression (MC3T3-E1 osteoblast; D 2): 1.0 fold
Wnt7B mRNA expression (MC3T3-E1 osteoblast; D 2): 0.6 fold
Wnt11 mRNA expression (MC3T3-E1 osteoblast; D 2): 0.8 fold
AFT6 mRNA expression (MC3T3-E1 osteoblast; D 4): 2.1 fold
ALP mRNA expression (MC3T3-E1 osteoblast; D 4): 4.6 fold
ATF3 mRNA expression (MC3T3-E1 osteoblast; D 4): 0.9 fold
Axin2 mRNA expression (MC3T3-E1 osteoblast; D 4): 1.1 fold
BMP2 mRNA expression (MC3T3-E1 osteoblast; D 4): 0.9 fold
BMP7 mRNA expression (MC3T3-E1 osteoblast; D 4): 1.3 fold
BSP mRNA expression (MC3T3-E1 osteoblast; D 4): 1.2 fold
COL1A1 mRNA expression (MC3T3-E1 osteoblast; D 4): 1.2 fold
Fzd1 mRNA expression (MC3T3-E1 osteoblast; D 4): 5.8 fold
Fzd2 mRNA expression (MC3T3-E1 osteoblast; D 4): 0.8 fold
Fzd5 mRNA expression (MC3T3-E1 osteoblast; D 4): 0.8 fold
LRP5 mRNA expression (MC3T3-E1 osteoblast; D 4): 1.0 fold
OCN mRNA expression (MC3T3-E1 osteoblast; D 4): 9 fold
OPN mRNA expression (MC3T3-E1 osteoblast; D 4): 2.7 fold
OSN mRNA expression (MC3T3-E1 osteoblast; D 4): 2 fold
OSX mRNA expression (MC3T3-E1 osteoblast; D 4): 0.6 fold
Runx2 mRNA expression (MC3T3-E1 osteoblast; D 4): 1.7 fold
VDR mRNA expression (MC3T3-E1 osteoblast; D 4): 1.6 fold
Wnt3A mRNA expression (MC3T3-E1 osteoblast; D 4): 1.9 fold
Wnt5A mRNA expression (MC3T3-E1 osteoblast; D 4): 0.8 fold
Wnt7B mRNA expression (MC3T3-E1 osteoblast; D 4): 0.1 fold
Wnt11 mRNA expression (MC3T3-E1 osteoblast; D 4): 0.4 fold
levels of osteocalcin (OCN) and osteoportin (OPN) mRNA (MC3T3-E1 osteoblast): markedly increased
cellular alkaline phosphatase (ALP) enzyme activities (MC3T3-E1 osteoblasts [1]): increased the cellular alkaline phosphatase (ALP) enzyme activities in a concentration-dependent manner
concentration at which increases in ALP activities were already evident (MC3T3-E1 osteoblasts [1]): 0.5 µM
concentration of maximum increase in ALP activities (MC3T3-E1 osteoblasts [1]): 5 µM
MCF7 cell proliferation induced by estradiol (MCF7 cells; 5 μM): significantly suppress
MCF7 cell proliferation (MCF7 cells; dose of 5 μM or higher): inhibited the proliferation
MCF7 cell proliferation (MCF7 cells; low dose of 0.3 μM): induced MCF7 cell proliferation
IC50 (Estrogen receptor beta): 5.6 nM
cell proliferation induced by 17beta-estradiol in MDA-MB-231 cells (ER negative) (MDA-MB-231 cells): had no effect
cell number (NBB assay) (MC3T3-E1 osteoblasts [2]): slightly increased the cell number
cell viability (NBB assay) (MC3T3-E1 osteoblasts [2]): significant loss of cell viability
Alizarin Red staining (calcium deposition) in cell layers [3]: significantly enhanced
transcriptional activity driven by estrogen responsive gene elements (ERE) [4]: stimulated the transcriptional activity driven by estrogen responsive gene elements (ERE) in a dose-dependent manner
